# Tests used:
# [1] = target: T1, EGFR L858R/T790M/C797S (BaF3-LTC cells) (Homo sapiens, UniProt P00533, C797S/L858R/T790M); experiment: EGFR degradation HTRF assay, BaF3-LTC cells; assay type: cell-based; conditions: BaF3-LTC cells; for DC50: EGFR degradation, IC50 (DC50) from curve fit, read-out: DC50(nM) BaF3-LTC; for Dmax: maximum percentage of inhibition (degradation), read-out: Dmax (%) BaF3-LTC
# T1 construct: expressed in transfected cells; host or cells: BaF3
# Method: (§1) BaF3 WT(wild type), BaF3-LTC(L858R/T790M/C797S) and BaF3-DTC(Del19/T790M/C797S) cells are treated with compounds diluted in 0.2% DMSO cell culture medium and incubate for 16h, 37° C., 5% CO2, H1975-#36, H1975-#28, H1975-#23 and HCC827 cells are treated with compounds diluted in 0.2% DMSO cell culture medium on day 2, incubate for 16h, 37° C., 5% CO2.the final concentriation of compounds in all assay is start with 10 uM, 5-fold dilution, total 8 doses were included.
# (§2) After 16h treatment, add HTRF lysis buffer to each well; seal the plate and incubate 1 hour at room temperature on a plate shaker; Once the cells are lysed, 16 μL of cell lysate are transferred to a PE 384-well HTRF detection plate; 4 μL of pre-mixed HTRF antibodies are added to each well; Cover the plate with a plate sealer, spin 1000 rpm for 1 min, Incubate overnight at room temperature; Read on BMG PheraStar with HTRF protocol (337 nm-665 nm-620 nm).
# (§3) The inhibition (degradation) percentage of the compound was calculated by the following equation: Inhibition percentage of Compound=100-100×(Signal-low control)/(High control-low control), wherein signal=each test compound group
# (§4) High control=Cell group with added DMSO and without compound, indicating microplate readings without EGFR degradation;
# (§5) Dmax is the maximum percentage of inhibition (degradation).
# (§6) The IC50 (DC50) value of a compound can be obtained by fitting the following equation
# (§7) Y=Bottom+(TOP−Bottom)/(1+((IC50/X)^hillslope))
# (§8) Wherein, X and Y are known values, and IC50, Hillslope, Top and Bottom are the parameters obtained by fitting with software. Y is the inhibition percentage (calculated from the equation), X is the concentration of the compound; IC50 is the concentration of the compound when the 50% inhibition is reached. The smaller the IC50 value is, the stronger the inhibitory ability of the compound is. Vice versa, the higher the IC50 value is, the weaker the inhibitory ability of the compound is; Hillslope represents the slope of the fitted curve, generally around 1*; Bottom represents the minimum value of the curve obtained by data fitting, which is generally 0%±20%; Top represents the maximum value of the curve obtained by data fitting, which is generally 100%±20%. The experimental data were fitted by calculating and analyzing with Dotmatics data analysis software.
# [2] = system: EGFR Del19/T790M/C797S (H1975-clone #28); experiment: EGFR degradation HTRF assay, H1975-clone #28 DTC cells; assay type: cell-based; conditions: H1975 # 28 DTC cells; for DC50: EGFR degradation, IC50 (DC50) from curve fit, read-out: DC50(nM) H1975 # 28 DTC; for Dmax (%) H1975 # 28 DTC: maximum percentage of inhibition (degradation)
# Method: H1975-clone #28(Del19/T790M/C797S) and H1975-clone #23(Del19/C797S). EGFR-Del19/T790M/C797S and EGFR-Del19/C797S were stably expressed in H1975 cell lines by lentivirus-mediated over-expression, respectively. The EGFR over-expressed cells then underwent gene knockout, in which the EGFR targeting sgRNA was designed to only target the endogenous EGFR copies and preserve the exogenous EGFR copies. Followed by the gene knockout, the edited H1975 cells were seeded in 96 well plates at the concentration of 1 cell/well, cultured for about 2 weeks to allow single clones formation. The formed clones were screened by DNA sequencing and whole exon sequencing analysis for the desired edition. H1975-clone #28 and H1975-clone #23 were finally confirmed as homozygous Del19/T790M/C797S EGFR and Del19/C797S EGFR clones, respectively.
# as §1, §2, §3, §4, §5, §6, §7, §8
# T1 sequence (P00533 25-1210 T790M/C797S/L858R): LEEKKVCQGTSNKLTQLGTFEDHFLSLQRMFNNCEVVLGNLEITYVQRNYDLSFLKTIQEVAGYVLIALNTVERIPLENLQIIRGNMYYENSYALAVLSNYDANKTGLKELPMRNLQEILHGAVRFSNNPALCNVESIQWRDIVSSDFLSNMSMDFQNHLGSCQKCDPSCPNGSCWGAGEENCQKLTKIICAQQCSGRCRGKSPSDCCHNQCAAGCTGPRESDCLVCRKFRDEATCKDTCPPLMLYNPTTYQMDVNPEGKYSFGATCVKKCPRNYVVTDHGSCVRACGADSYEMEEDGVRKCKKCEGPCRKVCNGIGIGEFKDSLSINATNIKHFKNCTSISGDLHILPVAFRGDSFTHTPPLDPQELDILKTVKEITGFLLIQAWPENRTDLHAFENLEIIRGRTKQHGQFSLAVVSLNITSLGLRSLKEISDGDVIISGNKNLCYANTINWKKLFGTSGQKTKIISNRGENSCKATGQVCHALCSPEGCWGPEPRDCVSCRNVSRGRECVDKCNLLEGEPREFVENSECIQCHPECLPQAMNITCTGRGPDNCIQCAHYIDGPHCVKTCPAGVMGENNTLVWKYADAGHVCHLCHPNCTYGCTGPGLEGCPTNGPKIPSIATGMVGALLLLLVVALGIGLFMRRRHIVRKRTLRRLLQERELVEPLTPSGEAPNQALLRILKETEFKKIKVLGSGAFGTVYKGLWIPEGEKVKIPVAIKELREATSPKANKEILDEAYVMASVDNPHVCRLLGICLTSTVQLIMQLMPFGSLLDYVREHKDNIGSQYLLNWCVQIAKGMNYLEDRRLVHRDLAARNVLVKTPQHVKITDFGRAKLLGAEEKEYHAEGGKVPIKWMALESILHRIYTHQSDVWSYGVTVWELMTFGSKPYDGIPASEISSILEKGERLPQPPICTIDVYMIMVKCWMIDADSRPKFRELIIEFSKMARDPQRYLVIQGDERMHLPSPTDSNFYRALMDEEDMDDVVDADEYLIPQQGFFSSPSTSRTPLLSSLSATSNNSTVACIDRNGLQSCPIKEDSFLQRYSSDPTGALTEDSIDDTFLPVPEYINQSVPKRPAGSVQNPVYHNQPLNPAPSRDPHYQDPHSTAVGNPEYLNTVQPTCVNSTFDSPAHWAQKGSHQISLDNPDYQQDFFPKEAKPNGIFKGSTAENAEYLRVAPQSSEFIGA
SMILES,DC50 [1] [nM],Dmax [1] [%],DC50 [2] [nM],Dmax (%) H1975 # 28 DTC [2] [%]
"CCOc1cc(N2CCC(N3CCN(CCc4cc5oc(=O)n(C6CCC(=O)NC6=O)c5cc4F)CC3)CC2)c(CC)cc1Nc1ncc(Br)c(Nc2ccc3c(=O)n(CC)ncc3c2P(C)(C)=O)n1 (stereo not shown) [Example 628, 3-(6-(2-(4-(1-(4-((5-bromo-4-((5-(dimethylphosphoryl)-2-ethyl-1-oxo-1,2-dihydrophthalazin-6-yl)amino)pyrimidin-2-yl)amino)-5-ethoxy-2-ethylphenyl)piperidin-4-yl)piperazin-1-yl)ethyl)-5-fluoro-2-oxobenzo[d]oxazol-3(2H)-yl)piperidine-2,6-dione]",3.24,92.3,0.715,76.12
"CCOc1cc(N2CCC(N3CCN(CCCc4cc(F)c([C@H]5CCC(=O)NC5=O)c(F)c4)CC3)CC2)c(CC)cc1Nc1ncc(Br)c(Nc2cc(F)c3nc(CC)ccc3c2P(C)(C)=O)n1 [Example 567, (R)-3-(4-(3-(4-(1-(4-((5-bromo-4-((5-(dimethylphosphoryl)-2-ethyl-8-fluoroquinolin-6-yl)amino)pyrimidin-2-yl)amino)-5-ethoxy-2-ethylphenyl)piperidin-4-yl)piperazin-1-yl)propyl)-2,6-difluorophenyl)piperidine-2,6-dione]",13.2,92,3.01,56.23
"CCc1ccc2c(P(C)(C)=O)c(Nc3nc(Nc4cc(CC)c(N5CCC(N6CCN(CCc7c(F)ccc8c7n(C)c(=O)n8C7CCC(=O)NC7=O)CC6)CC5)cc4OC)ncc3Br)ccc2n1 (stereo not shown) [Example 452, 3-(4-(2-(4-(1-(4-((5-bromo-4-((5-(dimethylphosphoryl)-2-ethylquinolin-6-yl)amino)pyrimidin-2-yl)amino)-2-ethyl-5-methoxyphenyl)piperidin-4-yl)piperazin-1-yl)ethyl)-5-fluoro-3-methyl-2-oxo-2,3-dihydro-1H-benzo[d]imidazol-1-yl)piperidine-2,6-dione]",3.96,89.7,0.863,78.26
"CCOc1cc(N2CCC(N3CCN(CCCc4cc(OC)cc5c4oc(=O)n5C4CCC(=O)NC4=O)CC3)CC2)c(CC)cc1Nc1ncc(Br)c(Nc2ccc3c(=O)n(CC)ncc3c2P(C)(C)=O)n1 (stereo not shown) [Example 598, 3-(7-(3-(4-(1-(4-((5-bromo-4-((5-(dimethylphosphoryl)-2-ethyl-1-oxo-1,2-dihydrophthalazin-6-yl)amino)pyrimidin-2-yl)amino)-5-ethoxy-2-ethylphenyl)piperidin-4-yl)piperazin-1-yl)propyl)-5-methoxy-2-oxobenzo[d]oxazol-3(2H)-yl)piperidine-2,6-dione]",18.8,88.4,1.64,81.26
"CCOc1cc(N2CCC(N3CCN(C(=O)COc4cccc5c4n(C)c(=O)n5C4CCC(=O)NC4=O)CC3)CC2)c(CC)cc1Nc1ncc(Br)c(Nc2ccc3nc(CC)ccc3c2P(C)(C)=O)n1 (stereo not shown) [Example 637, 3-(4-(2-(4-(1-(4-((5-bromo-4-((5-(dimethylphosphoryl)-2-ethylquinolin-6-yl)amino)pyrimidin-2-yl)amino)-5-ethoxy-2-ethylphenyl)piperidin-4-yl)piperazin-1-yl)-2-oxoethoxy)-3-methyl-2-oxo-2,3-dihydro-1H-benzo[d]imidazol-1-yl)piperidine-2,6-dione]",5.39,92.9,0.354,69.46
"CCOc1cc(N2CCC(N3CCN(CCc4c(F)cc5c(oc(=O)n5C5CCC(=O)NC5=O)c4F)CC3)CC2)c(CC)cc1Nc1ncc(Br)c(Nc2ccc3c(=O)n(CC)ncc3c2P(C)(C)=O)n1 (stereo not shown) [Example 629, 3-(6-(2-(4-(1-(4-((5-bromo-4-((5-(dimethylphosphoryl)-2-ethyl-1-oxo-1,2-dihydrophthalazin-6-yl)amino)pyrimidin-2-yl)amino)-5-ethoxy-2-ethylphenyl)piperidin-4-yl)piperazin-1-yl)ethyl)-5,7-difluoro-2-oxobenzo[d]oxazol-3(2H)-yl)piperidine-2,6-dione]",7.66,89.5,0.965,71.58
"CCOc1cc(N2CCC(N3CCN(CCc4c(F)cc5c(oc(=O)n5C5CCC(=O)NC5=O)c4F)CC3)CC2)c(CC)cc1Nc1ncc(Br)c(Nc2ccc3nc(CC)ccc3c2P(C)(C)=O)n1 (stereo not shown) [Example 635, 3-(6-(2-(4-(1-(4-((5-bromo-4-((5-(dimethylphosphoryl)-2-ethylquinolin-6-yl)amino)pyrimidin-2-yl)amino)-5-ethoxy-2-ethylphenyl)piperidin-4-yl)piperazin-1-yl)ethyl)-5,7-difluoro-2-oxobenzo[d]oxazol-3(2H)-yl)piperidine-2,6-dione]",11,90.7,1.37,77.57
"CCOc1cc(N2CCC(N3CCN(CCc4c(F)cc5c(oc(=O)n5C5CCC(=O)NC5=O)c4C)CC3)CC2)c(CC)cc1Nc1ncc(Br)c(Nc2ccc3c(=O)n(CC)ncc3c2P(C)(C)=O)n1 (stereo not shown) [Example 613, 3-(6-(2-(4-(1-(4-((5-bromo-4-((5-(dimethylphosphoryl)-2-ethyl-1-oxo-1,2-dihydrophthalazin-6-yl)amino)pyrimidin-2-yl)amino)-5-ethoxy-2-ethylphenyl)piperidin-4-yl)piperazin-1-yl)ethyl)-5-fluoro-7-methyl-2-oxobenzo[d]oxazol-3(2H)-yl)piperidine-2,6-dione]",17.3,88.6,3.55,71.47
"CCc1cc(Nc2ncc(Br)c(Nc3ccc4nccnc4c3P(C)(C)=O)n2)c(OC)cc1N1CCC(N2CCN(CCc3cc(F)c([C@H]4CCC(=O)NC4=O)c(F)c3)CC2)CC1 [Example 751, (R)-3-(4-(2-(4-(1-(4-((5-bromo-4-((5-(dimethylphosphoryl)quinoxalin-6-yl)amino)pyrimidin-2-yl)amino)-2-ethyl-5-methoxyphenyl)piperidin-4-yl)piperazin-1-yl)ethyl)-2,6-difluorophenyl)piperidine-2,6-dione]",9.43,–,0.759,92.19
"CCOc1cc(N2CCC(N3CCN(CCc4c(C)ccc5c4oc(=O)n5C4CCC(=O)NC4=O)CC3)CC2)c(CC)cc1Nc1ncc(Br)c(Nc2ccc3nc(CC)ccc3c2P(C)(C)=O)n1 (stereo not shown) [Example 634, 3-(7-(2-(4-(1-(4-((5-bromo-4-((5-(dimethylphosphoryl)-2-ethylquinolin-6-yl)amino)pyrimidin-2-yl)amino)-5-ethoxy-2-ethylphenyl)piperidin-4-yl)piperazin-1-yl)ethyl)-6-methyl-2-oxobenzo[d]oxazol-3(2H)-yl)piperidine-2,6-dione]",4.47,88,0.985,81.71
"COc1cc(N2CCC(N3CCN(C(=O)[C@H]4CCN(c5cc(F)c(C6CCC(=O)NC6=O)c(F)c5)C4)CC3)CC2)c(C)cc1Nc1ncc(Br)c(Nc2ccc3c(=O)n(C)ncc3c2P(C)(C)=O)n1 (stereo partly drawn) [Example 513, 3-(4-((S)-3-(4-(1-(4-((5-bromo-4-((5-(dimethylphosphoryl)-2-methyl-1-oxo-1,2-dihydrophthalazin-6-yl)amino)pyrimidin-2-yl)amino)-5-methoxy-2-methylphenyl)piperidin-4-yl)piperazine-1-carbonyl)pyrrolidin-1-yl)-2,6-difluorophenyl)piperidine-2,6-dione]",10.2,85.2,1.37,78.24
